Patent US20250214993A1, “AROMATIC RING COMPOUND AND USE THEREOF” (SHANGHAI SHIJIANG BIOTECHNOLOGY CO., LTD, priority 2022, published 2025)

Experiments:
Type in all cases: cell-based
Con-NCI-H82 cell = assay: Cell viability (Promega CellTiter-Glo, intracellular ATP), IC50 on Con-NCI-H82 cell; conditions: Homo sapiens; normal untreated NCI-H82 cell (control)
Source text: (§1) The expression of NNMT protein in NCI-H82 cell was overexpressed by inserting the NNMT gene into NCI-H82 cell using a viral vector, and the NNMT protein-overexpressing NCI-H82 cell (ov-NNMT NCI-H82 cell) was obtained. The normal and untreated NCI-H82 cell (Con-NCI-H82 cell) was used as control. The expressing content of NNMT protein in the ov-NNMT NCI-H82 cell and Con-NCI-H82 cell was detected using Western Blot assay (as shown in FIG. 1), it could be seen from FIG. 1 that the NNMT protein was overexpressed in the ov-NNMT NCI-H82 cell compared with the expression level of NNMT protein in the Con-NCI-H82 cell.
(§2) The cell viability was detected using the Promega CellTiter-Glo kit which reflected cell viability by measuring intracellular ATP content. The Con-NCI-H82 cell and ov-NNMT NCI-H82 cell was cultured in 10% fetal bovine serum-containing RPMI1640 medium (+P/S).

ov-NNMT NCI-H82 cell = assay: Cell viability (Promega CellTiter-Glo, intracellular ATP), IC50 on NNMT-overexpressing NCI-H82 cell; conditions: Homo sapiens; NCI-H82 cell overexpressing NNMT protein
Source text: as §1, §2

mPTP-active Daoy cell = assay: Cell viability (Promega CellTiter-Glo), IC50 on mPTP-active Daoy cell; conditions: Homo sapiens; Daoy cell transfected with empty virus vector
mPTP-inactive Daoy cell = assay: Cell viability (Promega CellTiter-Glo), IC50 on mPTP-inactive Daoy cell (PPIF shRNA); conditions: Homo sapiens; Daoy cell transfected with PPIF shRNA vector

Row | SMILES | IC50 (ov-NNMT NCI-H82 cell) | IC50 (Con-NCI-H82 cell) | IC50 (mPTP-active Daoy cell) | IC50 (mPTP-inactive Daoy cell)
1 | O=C1c2cc(Cl)ccc2CCC1[n+]1ccc2cn(-c3ccccc3)cc2c1 (stereo not shown) [AB27196] | 5510 nM | 577 nM | 6570 nM | 2080 nM
2 | Cc1ccc(C(=O)C[n+]2ccc(N3CCc4ccccc43)cc2C)cc1 [AB27306] | 5460 nM | 737 nM | 9910 nM | 3230 nM
3 | Cc1cn(CC(=O)c2cccc(OC(F)(F)F)c2)c2cc[n+](Cc3ccccc3)cc12 [AB27457] | 6610 nM | 417 nM | 8610 nM | 2160 nM
4 | Cc1ccc(C(=O)CNc2cc[n+](Cc3ccccc3)cc2)cc1 [AB27283] | 3380 nM | 874 nM | 10600 nM | 3240 nM
5 | Cc1ccc2c(c1)CCC(n1ncc3c[n+](Cc4ccccc4)ccc31)C2=O (stereo not shown) [AB31777] | 1990 nM | 128 nM | 6990 nM | 1230 nM
6 | Cc1c(Cl)c2c[n+](Cc3ccccc3)ccc2n1CC(=O)c1cccc(OC(F)(F)F)c1 [AB27483] | 7240 nM | 1160 nM | 8240 nM | 2080 nM
7 | O=C1c2cc(OC(F)(F)F)ccc2CCC1[n+]1ccc2c(c1)CCC(c1ccccc1)N2 (stereo not shown) [AB27132] | 4870 nM | 917 nM | 7950 nM | 3270 nM
8 | Cc1ccc(C(=O)C[n+]2ccc(N3CCCCC3)cc2)cc1 [AB27309] | 4860 nM | 837 nM | 8580 nM | 3370 nM
9 | Cc1cn(Cc2ccccc2)c2cc[n+](C3CCc4ccc(OC(F)(F)F)cc4C3=O)cc12 (stereo not shown) [AB27175] | 2860 nM | 226 nM | 3860 nM | 1230 nM
10 | Cc1cn(CC(=O)c2ccc(C(F)(F)F)cc2)c2cc[n+](Cc3ccccc3)cc12 [AB27463] | 10600 nM | 2060 nM | 10600 nM | 4760 nM
11 | O=C1c2cc(OC(F)(F)F)ccc2CCC1n1ncc2c[n+](Cc3ccccc3)ccc21 (stereo not shown) [AB31775] | 2090 nM | 124 nM | 5380 nM | 1390 nM
12 | O=C1c2cc(Cl)ccc2CCC1[n+]1ccc2c(c1)c(Cl)cn2Cc1ccccc1 (stereo not shown) [AB27172] | 2040 nM | 203 nM | 3940 nM | 1380 nM
13 | O=C(C[n+]1ccc2c(c1)CCC(c1ccccc1)N2)c1ccc(OC(F)(F)F)cc1 (stereo not shown) [AB27103] | 11000 nM | 1480 nM | 8980 nM | 4090 nM
14 | Cc1cn(Cc2ccccc2)c2cc[n+](C3CCc4ccc(F)cc4C3=O)cc12 (stereo not shown) [AB27470] | 2430 nM | 112 nM | 3230 nM | 930 nM
15 | O=C1c2cc(Cl)ccc2CCC1n1cnc2c[n+](Cc3ccccc3)ccc21 (stereo not shown) [AB31704] | 3180 nM | 264 nM | 3690 nM | 770 nM
16 | O=C1c2ccc(OC(F)(F)F)cc2CCC1[n+]1ccc2c(ccn2Cc2ccccc2)c1 (stereo not shown) [AB24997] | 3120 nM | 498 nM | 8560 nM | 2340 nM
17 | O=C1c2cc(Cl)ccc2CCC1[n+]1ccc2c(c1)c(F)cn2Cc1ccccc1 (stereo not shown) [AB27173] | 2030 nM | 135 nM | 3430 nM | 1020 nM
18 | Cc1cn(CC(=O)c2cccc(C(F)(F)F)c2)c2cc[n+](Cc3ccccc3)cc12 [AB27458] | 7720 nM | 748 nM | 10300 nM | 3010 nM
19 | O=C1c2cc(F)ccc2CCC1n1ncc2c[n+](Cc3ccccc3)ccc21 (stereo not shown) [AB31773] | 1810 nM | 110 nM | 2980 nM | 490 nM
20 | O=C1c2cc(C(F)(F)F)ccc2CCC1n1ncc2c[n+](Cc3ccccc3)ccc21 (stereo not shown) [AB31774] | 7920 nM | 970 nM | 9920 nM | 1530 nM
21 | O=C1c2sccc2CCC1[n+]1ccc2c(ccn2Cc2ccccc2)c1 (stereo not shown) [AB27200] | 5680 nM | 1120 nM | 6030 nM | 2150 nM
22 | O=C1c2ccc(OC(F)(F)F)cc2CCC1[n+]1ccc2c(c1)CC(c1ccccc1)N2 (stereo not shown) [AB27101] | 2310 nM | 750 nM | 5680 nM | 1930 nM
23 | O=C(Cn1ncc2c[n+](Cc3ccccc3)ccc21)c1cccc(OC(F)(F)F)c1 [AB27498] | 11000 nM | 2180 nM | 9890 nM | 1960 nM
24 | CN1c2nc[n+](C3CCc4ccc(Cl)cc4C3=O)cc2CCC1c1ccccc1 (stereo not shown) [AB27198] | 3550 nM | 700 nM | 7550 nM | 1890 nM
25 | Cn1cc(Cc2ccccc2)c2cc[n+](C3CCc4ccc(C(F)(F)F)cc4C3=O)cc21 (stereo not shown) [AB27338] | 2360 nM | 391 nM | 6620 nM | 2090 nM
26 | Nc1cc[n+](CC(=O)c2ccc(OC(F)(F)F)cc2)cc1 [AB36528] | 19000 nM | 19500 nM | 15700 nM | 17900 nM

Stronger by IC50 (ov-NNMT NCI-H82 cell), values ahead:

Row | IC50 (ov-NNMT NCI-H82 cell) | SMILES | IC50 (Con-NCI-H82 cell) | IC50 (mPTP-active Daoy cell) | IC50 (mPTP-inactive Daoy cell)
27 | 1320 nM | Cc1c2ccn(Cc3ccccc3)c2cc[n+]1C1CCc2ccc(Cl)cc2C1=O (stereo not shown) [AB27219] | 85 nM | 5090 nM | 2120 nM
28 | 182 nM | O=C1c2cc(C(F)(F)F)ccc2CCC1n1ccc2c[n+](Cc3ccccc3)ccc21 (stereo not shown) [AB27190] | 13 nM | 130 nM | 40 nM
29 | 1740 nM | O=C1c2cc(F)ccc2CCC1[n+]1ccc2c(ccn2Cc2ccccc2)c1 (stereo not shown) [AB27356] | 130 nM | 5540 nM | 940 nM
30 | 381 nM | Cc1ccc(C(=O)Cn2ccc3c[n+](C(C)c4ccccc4)ccc32)cc1 (stereo not shown) [AB27261] | 23 nM | 380 nM | 180 nM
31 | 268 nM | Cc1ccc(C(=O)C[n+]2ccc(NCc3ccccc3)cc2C)c(F)c1 [AB27325] | 22 nM | 2010 nM | 380 nM
32 | 287 nM | O=C(Cn1c(Br)cc2c[n+](Cc3ccccc3)ccc21)c1cccc(OC(F)(F)F)c1 [AB27489] | 23 nM | 370 nM | 170 nM
33 | 245 nM | Cc1ccc2c(c1)CCC(n1ccc3c[n+](C(C)c4ccccc4)ccc31)C2 (stereo not shown) [AB27181] | 17 nM | 190 nM | 70 nM
34 | 214 nM | Cc1ccc2c(c1)C(=O)C(n1ccc3c[n+](Cc4ccccc4)ccc31)CC2 (stereo not shown) [AB27192] | 12 nM | 190 nM | 30 nM
35 | 968 nM | Cc1c[n+](Cc2ccccc2)cc2ccn(CC(=O)c3cccc(Cl)c3)c12 [AB27257] | 75 nM | 2160 nM | 880 nM
36 | 383 nM | Cc1cc2c[n+](Cc3ccccc3)ccc2n1CC(=O)c1cccc(C(F)(F)F)c1 [AB27456] | 22 nM | 380 nM | 130 nM
37 | 1580 nM | O=C1c2cc(Cl)ccc2CCC1[n+]1cnc2c(ccn2Cc2ccccc2)c1 (stereo not shown) [AB27140] | 182 nM | 3660 nM | 1480 nM
38 | 252 nM | O=C1c2cc(Cl)ccc2CCC1n1ccc2c[n+](Cc3ccccc3)ccc21 (stereo not shown) [AB27187] | 14 nM | 210 nM | 50 nM
39 | 857 nM | CC(=O)N(Cc1ccccc1)c1cc[n+](CC(=O)c2ccc(C)cc2)c(C)c1 [AB27222] | 56 nM | 1750 nM | 660 nM
40 | 214 nM | Cc1cn(C2CCc3ccc(Cl)cc3C2=O)c2cc[n+](Cc3ccccc3)cc12 (stereo not shown) [AB27188] | 14 nM | 230 nM | 40 nM
41 | 1050 nM | CCc1cn(Cc2ccccc2)c2cc[n+](C3CCc4ccc(Cl)cc4C3=O)cc12 (stereo not shown) [AB27171] | 63 nM | 1940 nM | 690 nM
42 | 904 nM | O=C1c2sccc2CCC1n1ccc2c[n+](Cc3ccccc3)ccc21 (stereo not shown) [AB27345] | 76 nM | 6690 nM | 2040 nM
43 | 245 nM | Cc1ccc(C(=O)Cn2c(C)cc3c[n+](Cc4ccccc4)ccc32)cc1 [AB27277] | 15 nM | 160 nM | 30 nM
44 | 265 nM | Cc1cc2c[n+](Cc3ccccc3)ccc2n1CC(=O)c1cccc(OC(F)(F)F)c1 [AB27455] | 22 nM | 360 nM | 110 nM
45 | 1700 nM | O=C1c2cc(Cl)ccc2CCC1[n+]1ccc2cn(Cc3ccccc3)cc2c1 (stereo not shown) [AB27197] | 174 nM | 3570 nM | 1020 nM
46 | 154 nM | Cc1ccc2c(c1)CCC(n1ccc3c[n+](Cc4ccccc4)ccc31)C2=O (stereo not shown) [AB27193] | 9 nM | 170 nM | 30 nM
47 | 904 nM | O=C1c2cc(Cl)ccc2CCC1n1ncc2c[n+](Cc3ccccc3)ccc21 (stereo not shown) [AB27500] | 122 nM | 3180 nM | 620 nM
48 | 1490 nM | Cc1c(C)n(CC(=O)c2cccc(OC(F)(F)F)c2)c2cc[n+](Cc3ccccc3)cc12 [AB27492] | 174 nM | 3750 nM | 1210 nM
49 | 496 nM | O=C(Cn1c(Cl)cc2c[n+](Cc3ccccc3)ccc21)c1cccc(C(F)(F)F)c1 [AB27487] | 31 nM | 570 nM | 220 nM
